Laboratory results as given in US11033641B2, “Radiolabelled mGluR2/3 pet ligands” (Janssen Pharmaceutica NV, priority 2015, dated 2021).

Experiment: Ex-vivo biodistribution in SD rats
Parameters: species or system Sprague Dawley rats
Description: Sprague-Dawley rats obtained from Harlan (the Netherlands), were housed in groups of four to six per cage until treatment. They were kept at a constant temperature of 21° C. and at a 12-h light/dark cycle, in which lights were switched on at 8:00 a.m. Animals had unrestricted access to food (Teklad Global 16% Protein Rodent Diet, Harlan, Madison, Wis., USA) and water. All animal experiments were performed in compliance with Belgium laws on animal experimentation and after approval by the local animal ethics committee.
(§1) The biodistribution of [^18F]-1 was determined at 2, 10, 30 and 60 min, after injection in Sprague Dawley (SD) rats (n=3 per time point) while for [^18F]-2 the 30 min time point was not performed. Rats were injected intravenously with 0.7-1.1 MBq via a tail vein and euthanized at the time points indicated above, under isoflurane anesthesia. All tissues were dissected, weighed and counted for radioactivity in a gamma counter.
as §1, with “Dawley” for “Dawley (SD)”, “point).” for “point) while for [^18F]-2 the 30 min time point was not performed.”

C[C@H]1CN(c2ccc(C(F)(F)F)cc2)C(=O)c2c(C#Cc3cnc(N)cc3C[18F])cnn21 [Compound 1]
Biodistribution, mean SUV (blood, 2 min after i.v. injection): 1.12 SUV
Biodistribution, mean SUV (blood, 10 min after i.v. injection): 0.74 SUV
Biodistribution, mean SUV (blood, 30 min after i.v. injection): 0.47 SUV
Biodistribution, mean SUV (blood, 60 min after i.v. injection): 0.50 SUV
Biodistribution, mean SUV (bone, 2 min after i.v. injection): 0.39 SUV
Biodistribution, mean SUV (bone, 10 min after i.v. injection): 0.34 SUV
Biodistribution, mean SUV (bone, 30 min after i.v. injection): 0.48 SUV
Biodistribution, mean SUV (bone, 60 min after i.v. injection): 0.58 SUV
Biodistribution, mean SUV (cerebellum, 2 min after i.v. injection): 2.25 SUV
Biodistribution, mean SUV (cerebellum, 10 min after i.v. injection): 3.17 SUV
Biodistribution, mean SUV (cerebellum, 30 min after i.v. injection): 3.93 SUV
Biodistribution, mean SUV (cerebellum, 60 min after i.v. injection): 4.41 SUV
Biodistribution, mean SUV (cerebrum + cerebellum, 2 min after i.v. injection): 2.03 SUV
Biodistribution, mean SUV (cerebrum + cerebellum, 10 min after i.v. injection): 3.11 SUV
Biodistribution, mean SUV (cerebrum + cerebellum, 30 min after i.v. injection): 3.98 SUV
Biodistribution, mean SUV (cerebrum + cerebellum, 60 min after i.v. injection): 4.95 SUV
Biodistribution, mean SUV (cortex, 2 min after i.v. injection): 3.50 SUV
Biodistribution, mean SUV (cortex, 10 min after i.v. injection): 8.37 SUV
Biodistribution, mean SUV (cortex, 30 min after i.v. injection): 6.96 SUV
Biodistribution, mean SUV (cortex, 60 min after i.v. injection): 8.11 SUV
Brain uptake, in words (ex-vivo biodistribution): very high
Defluorination judged from bone uptake over time (ex-vivo biodistribution): some defluorination
Peripheral uptake, in words (ex-vivo biodistribution): highest uptake in the liver
Biodistribution, mean SUV (heart, 2 min after i.v. injection): 3.54 SUV
Biodistribution, mean SUV (heart, 10 min after i.v. injection): 2.11 SUV
Biodistribution, mean SUV (heart, 30 min after i.v. injection): 1.41 SUV
Biodistribution, mean SUV (heart, 60 min after i.v. injection): 1.30 SUV
Biodistribution, mean SUV (hippocampus, 2 min after i.v. injection): 1.53 SUV
Biodistribution, mean SUV (hippocampus, 10 min after i.v. injection): 2.49 SUV
Biodistribution, mean SUV (hippocampus, 30 min after i.v. injection): 3.10 SUV
Biodistribution, mean SUV (hippocampus, 60 min after i.v. injection): 3.90 SUV
Biodistribution, mean SUV (kidneys, 2 min after i.v. injection): 4.97 SUV
Biodistribution, mean SUV (kidneys, 10 min after i.v. injection): 2.58 SUV
Biodistribution, mean SUV (kidneys, 30 min after i.v. injection): 2.08 SUV
Biodistribution, mean SUV (kidneys, 60 min after i.v. injection): 2.16 SUV
Biodistribution, mean SUV (liver, 2 min after i.v. injection): 9.74 SUV
Biodistribution, mean SUV (liver, 10 min after i.v. injection): 6.38 SUV
Biodistribution, mean SUV (liver, 30 min after i.v. injection): 4.66 SUV
Biodistribution, mean SUV (liver, 60 min after i.v. injection): 4.75 SUV
Biodistribution, mean SUV (lungs, 2 min after i.v. injection): 2.93 SUV
Biodistribution, mean SUV (lungs, 10 min after i.v. injection): 1.78 SUV
Biodistribution, mean SUV (lungs, 30 min after i.v. injection): 1.63 SUV
Biodistribution, mean SUV (lungs, 60 min after i.v. injection): 1.92 SUV
Biodistribution, mean SUV (muscle, 2 min after i.v. injection): 0.50 SUV
Biodistribution, mean SUV (muscle, 10 min after i.v. injection): 0.83 SUV
Biodistribution, mean SUV (muscle, 30 min after i.v. injection): 0.75 SUV
Biodistribution, mean SUV (muscle, 60 min after i.v. injection): 0.79 SUV
Biodistribution, mean SUV (pancreas, 2 min after i.v. injection): 4.30 SUV
Biodistribution, mean SUV (pancreas, 10 min after i.v. injection): 2.36 SUV
Biodistribution, mean SUV (pancreas, 30 min after i.v. injection): 2.06 SUV
Biodistribution, mean SUV (pancreas, 60 min after i.v. injection): 2.33 SUV
Biodistribution, mean SUV (pons, 2 min after i.v. injection): 1.53 SUV
Biodistribution, mean SUV (pons, 10 min after i.v. injection): 1.73 SUV
Biodistribution, mean SUV (pons, 30 min after i.v. injection): 1.76 SUV
Biodistribution, mean SUV (pons, 60 min after i.v. injection): 1.85 SUV
Biodistribution, mean SUV (rest of cerebrum, 2 min after i.v. injection): 2.06 SUV
Biodistribution, mean SUV (rest of cerebrum, 10 min after i.v. injection): 3.34 SUV
Biodistribution, mean SUV (rest of cerebrum, 30 min after i.v. injection): 4.37 SUV
Biodistribution, mean SUV (rest of cerebrum, 60 min after i.v. injection): 5.52 SUV
Biodistribution, mean SUV (spleen, 2 min after i.v. injection): 2.81 SUV
Biodistribution, mean SUV (spleen, 10 min after i.v. injection): 1.68 SUV
Biodistribution, mean SUV (spleen, 30 min after i.v. injection): 1.06 SUV
Biodistribution, mean SUV (spleen, 60 min after i.v. injection): 1.02 SUV
Biodistribution, mean SUV (striatum, 2 min after i.v. injection): 1.98 SUV
Biodistribution, mean SUV (striatum, 10 min after i.v. injection): 3.46 SUV
Biodistribution, mean SUV (striatum, 30 min after i.v. injection): 4.15 SUV
Biodistribution, mean SUV (striatum, 60 min after i.v. injection): 7.12 SUV
Biodistribution, mean SUV (whole cerebrum, 2 min after i.v. injection): 1.96 SUV
Biodistribution, mean SUV (whole cerebrum, 10 min after i.v. injection): 3.05 SUV
Biodistribution, mean SUV (whole cerebrum, 30 min after i.v. injection): 3.94 SUV
Biodistribution, mean SUV (whole cerebrum, 60 min after i.v. injection): 5.00 SUV
